Test results: PMC5719402, “Protein-Structure Assisted Optimization of 4,5-Dihydroxypyrimidine-6-Carboxamide Inhibitors of Influenza Virus Endonuclease” (Scientific Reports, 2017)

Molecular target: wild type PAN protein (PA endonuclease domain) (Influenza A virus, UniProt C3W5S0)
Assay: biochemical
Type: binding
Conditions: FP Ki

SMILES	Ki
O=C(NCc1cc2ccccc2o1)c1nc([C@@H]2CCCN2C(=O)CSc2ccccc2Cl)[nH]c(=O)c1O [Compound 10l]	1000 ± 200 nM
O=C(NCC[S+]([O-])c1ccccc1)c1nc([C@@H]2CCCN2C(=O)COc2ccccc2Cl)[nH]c(=O)c1O (stereo partly shown) [Compound 10c]	200 ± 30 nM
Cn1c([C@@H]2CCCN2C(=O)c2c(Cl)cncc2Cl)nc(C(=O)NCCc2ccccc2)c(O)c1=O [Compound 8b]	70 ± 20 nM
COc1ccc(S(=O)(=O)CCNC(=O)c2nc([C@@H]3CCCN3C(=O)COc3ccccc3Cl)[nH]c(=O)c2O)cc1 [Compound 10f]	38 ± 9 nM
O=C(NCCc1ccccc1)c1nc([C@@H]2CCCN2C(=O)CCc2ccccc2Cl)[nH]c(=O)c1O [Compound 9a]	1200 ± 200 nM
O=C(NCCc1ccccc1)c1nc([C@@H]2CCCN2C(=O)CSc2ccccc2F)[nH]c(=O)c1O [Compound 9l]	1200 ± 100 nM
O=C(NCCc1ccccc1)c1nc([C@@H]2CCCN2C(=O)COc2ccccc2F)[nH]c(=O)c1O [Compound 9g]	1300 ± 400 nM
O=C(NCCc1cccc(C(F)(F)F)c1)c1nc([C@@H]2CCCN2C(=O)c2c(Cl)cncc2Cl)[nH]c(=O)c1O [Compound 8c]	100 ± 30 nM
O=C(NCCS(=O)(=O)c1ccccc1)c1nc([C@@H]2CCCN2C(=O)COc2ccccc2Cl)[nH]c(=O)c1O [Compound 10d]	46 ± 1 nM
O=C(NCCc1ccccc1)c1nc([C@@H]2CCCN2C(=O)c2cc(Cl)ncc2Cl)[nH]c(=O)c1O [Compound 7d]	100 ± 20 nM
O=C(NCCOc1ccccc1)c1nc([C@@H]2CCCN2C(=O)COc2ccccc2F)[nH]c(=O)c1O [Compound 9h]	440 ± 30 nM
COCCNC(=O)c1nc([C@@H]2CCCN2C(=O)COc2ccccc2)[nH]c(=O)c1O [Compound 6e]	1600 nM
O=C(NCC1Cc2ccccc2C1)c1nc([C@@H]2CCCN2C(=O)c2c(Cl)cncc2Cl)[nH]c(=O)c1O [Compound 8h]	100 ± 30 nM
O=C(NCCc1ccncc1)c1nc([C@@H]2CCCN2C(=O)COc2ccccc2F)[nH]c(=O)c1O [Compound 10n]	256 ± 7 nM
O=C(NCCc1ccccc1)c1nc([C@@H]2CCCN2C(=O)CCc2ccccc2F)[nH]c(=O)c1O [Compound 9c]	3700 ± 800 nM
O=C(NCCSc1ccccc1)c1nc([C@@H]2CCCN2C(=O)COc2ccccc2Cl)[nH]c(=O)c1O [Compound 10a]	560 ± 20 nM
O=C(NCc1cccc(C(F)(F)F)c1)c1nc([C@@H]2CCCN2C(=O)c2c(Cl)cncc2Cl)[nH]c(=O)c1O [Compound 8a]	160 ± 40 nM
O=C(NCCOc1ccccc1)c1nc([C@@H]2CCCN2C(=O)CSc2ccccc2F)[nH]c(=O)c1O [Compound 9m]	240 ± 30 nM
O=C(NCCc1ccccc1)c1nc([C@@H]2CCCN2C(=O)c2ccnc(Cl)c2)[nH]c(=O)c1O [Compound 7e]	17500 ± 1100 nM
O=C(NCCc1ccccc1)c1nc([C@@H]2CCCN2C(=O)C[S+]([O-])c2ccccc2Cl)[nH]c(=O)c1O (stereo partly shown) [Compound 9j]	400 ± 70 nM
Cn1c([C@@H]2CCCN2C(=O)c2c(Cl)cncc2Cl)nc(C(=O)NC2Cc3ccccc3C2)c(O)c1=O [Compound 8g]	1700 ± 100 nM
O=C(NC1Cc2ccccc2C1)c1nc([C@@H]2CCCN2C(=O)COc2ccccc2Cl)[nH]c(=O)c1O [Compound 10h]	470 ± 70 nM
O=C(NCCc1ccccc1)c1nc([C@@H]2CCCN2C(=O)CSc2ccccc2Cl)[nH]c(=O)c1O [Compound 9i]	290 ± 40 nM
O=C(NCCOc1ccccc1)c1nc([C@@H]2CCCN2C(=O)CCc2ccccc2F)[nH]c(=O)c1O [Compound 9d]	500 ± 100 nM
O=C(NCCOc1ccccc1)c1nc([C@@H]2CCCN2C(=O)c2c(Cl)cncc2Cl)[nH]c(=O)c1O [Compound 8d]	50 ± 20 nM

Same assay, conditions: WT FP Ki

SMILES	Ki
O=C(NCCOc1ccccc1)c1nc([C@@H]2CCCN2C(=O)COc2ccccc2Cl)[nH]c(=O)c1O [Compound 9f]	500 ± 200 nM
O=C(NCCc1ccccn1)c1nc([C@@H]2CCCN2C(=O)COc2ccccc2F)[nH]c(=O)c1O [Compound 10m]	400 ± 200 nM

Same assay, conditions: read-out: WT FP Ki

SMILES	Ki
O=C(O)C(=O)CC(=O)c1ccccc1 [DPBA, reference compound]	3700 ± 500 nM

Tested on: influenza virus A/Puerto Rico/8/34 (H1N1)
Assay: microbe, parasite or virus in culture
Type: cell-based
Conditions: H1N1, MDCK, read-out: plaque IC50

SMILES	IC50
O=C(NCCOc1ccccc1)c1nc([C@@H]2CCCN2C(=O)CCc2ccccc2Cl)[nH]c(=O)c1O [Compound 9b]	6600 nM
O=C(NCCOc1ccccc1)c1nc([C@@H]2CCCN2C(=O)CSc2ccccc2Cl)[nH]c(=O)c1O [Compound 9k]	7200 nM
COc1ccc(S(=O)(=O)CCNC(=O)c2nc([C@@H]3CCCN3C(=O)CSc3ccccc3Cl)[nH]c(=O)c2O)cc1 [Compound 10g]	9100 nM
